Source: patent publication US11697648B2, “Fused pyrimidine pyridinone compounds as JAK inhibitors” (THERAVANCE BIOPHARMA R&D IP, LLC, priority 2019, dated 2023)

Legend:
[1] = tested on: IL-2 stimulated STAT5 phosphorylation in Tall-1 human T cell line (JAK3); test: Cellular JAK3 potency assay: inhibition of IL-2 stimulated pSTAT5 in Tall-1 T cells; format: cell-based; conditions: IL-2 stimulated pSTAT5, Tall-1 T cells
Method in brief: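 Tall-1 cells, 45,000 per well, preincubated 1 hour with compound at 37 °C, then stimulated 30 minutes with IL-2 at 300 ng/ml final. pSTAT5 (Tyr694/699) in lysates quantified by AlphaLISA SureFire Ultra. pIC50 derived from inhibition curves, given as mean with SD.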

Tyk2 = Tyk2 (Homo sapiens (Human), UniProt P29597); test: Biochemical Tyk2 kinase assay (LanthaScreen)
Tyk2, sequence (P29597 whole entry): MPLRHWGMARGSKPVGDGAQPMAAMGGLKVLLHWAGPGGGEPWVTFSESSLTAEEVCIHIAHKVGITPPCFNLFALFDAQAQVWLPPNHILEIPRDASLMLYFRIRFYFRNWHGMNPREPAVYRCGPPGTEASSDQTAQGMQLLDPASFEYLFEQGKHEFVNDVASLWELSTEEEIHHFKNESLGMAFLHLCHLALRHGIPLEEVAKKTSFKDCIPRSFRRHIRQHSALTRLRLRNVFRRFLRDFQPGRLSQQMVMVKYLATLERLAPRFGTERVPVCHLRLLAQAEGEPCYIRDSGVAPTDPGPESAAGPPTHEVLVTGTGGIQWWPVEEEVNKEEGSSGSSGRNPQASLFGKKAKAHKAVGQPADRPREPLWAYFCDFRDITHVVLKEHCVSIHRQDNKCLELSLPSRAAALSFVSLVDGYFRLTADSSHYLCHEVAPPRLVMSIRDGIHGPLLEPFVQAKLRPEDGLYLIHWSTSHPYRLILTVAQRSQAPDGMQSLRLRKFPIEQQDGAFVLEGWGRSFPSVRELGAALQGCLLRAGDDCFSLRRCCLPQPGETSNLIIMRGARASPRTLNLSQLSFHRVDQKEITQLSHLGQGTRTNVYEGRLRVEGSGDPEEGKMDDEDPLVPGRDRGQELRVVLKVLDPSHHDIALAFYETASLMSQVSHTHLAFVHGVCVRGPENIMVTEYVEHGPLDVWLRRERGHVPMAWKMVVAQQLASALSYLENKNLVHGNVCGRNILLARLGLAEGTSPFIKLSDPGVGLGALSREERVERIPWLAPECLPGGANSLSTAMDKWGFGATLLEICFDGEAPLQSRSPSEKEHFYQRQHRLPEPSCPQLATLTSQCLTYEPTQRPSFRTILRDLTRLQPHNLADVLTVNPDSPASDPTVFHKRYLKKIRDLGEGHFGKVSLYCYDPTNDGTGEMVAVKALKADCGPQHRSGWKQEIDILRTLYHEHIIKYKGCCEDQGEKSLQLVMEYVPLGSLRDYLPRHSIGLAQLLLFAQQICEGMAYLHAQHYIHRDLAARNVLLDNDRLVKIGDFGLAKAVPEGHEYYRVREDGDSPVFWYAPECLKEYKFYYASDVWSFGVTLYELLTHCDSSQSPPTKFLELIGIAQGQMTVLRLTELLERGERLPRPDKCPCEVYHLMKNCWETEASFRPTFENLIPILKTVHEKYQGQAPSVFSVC
Method in brief: (§1)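 GST-JAK + GFP-STAT1 peptide, HEPES pH 7.5/MgCl2/EGTA/Brij-35 buffer; cpd preincubation 1 h RT; ATP start, 1 h RT; stop with 10 mM EDTA + 2 nM Tb-anti-pSTAT1; TR-FRET 520/495. 4-parameter IC50 → pKi (Cheng-Prusoff).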

Caco-2 cell monolayers = test: Caco-2 permeation assay; format: in vitro ADME; conditions: 5 μM, A-B direction, with Verapamil (25 μM)
Method in brief: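 Compounds tested at 5 μM in duplicate across Caco-2 monolayers, apical-to-basolateral, with 25 μM verapamil to block P-gp, at 37° C., 5% CO2. Apical and basal samples taken at 0 and 120 min, analysed by LC-MS/MS; Papp (cm/sec) calculated as dQ/(dt×Area×concentration).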

JAK1 = JAK1 (Homo sapiens (Human), UniProt P23458); test: Biochemical JAK1 kinase assay (LanthaScreen)
JAK1, sequence (P23458 whole entry): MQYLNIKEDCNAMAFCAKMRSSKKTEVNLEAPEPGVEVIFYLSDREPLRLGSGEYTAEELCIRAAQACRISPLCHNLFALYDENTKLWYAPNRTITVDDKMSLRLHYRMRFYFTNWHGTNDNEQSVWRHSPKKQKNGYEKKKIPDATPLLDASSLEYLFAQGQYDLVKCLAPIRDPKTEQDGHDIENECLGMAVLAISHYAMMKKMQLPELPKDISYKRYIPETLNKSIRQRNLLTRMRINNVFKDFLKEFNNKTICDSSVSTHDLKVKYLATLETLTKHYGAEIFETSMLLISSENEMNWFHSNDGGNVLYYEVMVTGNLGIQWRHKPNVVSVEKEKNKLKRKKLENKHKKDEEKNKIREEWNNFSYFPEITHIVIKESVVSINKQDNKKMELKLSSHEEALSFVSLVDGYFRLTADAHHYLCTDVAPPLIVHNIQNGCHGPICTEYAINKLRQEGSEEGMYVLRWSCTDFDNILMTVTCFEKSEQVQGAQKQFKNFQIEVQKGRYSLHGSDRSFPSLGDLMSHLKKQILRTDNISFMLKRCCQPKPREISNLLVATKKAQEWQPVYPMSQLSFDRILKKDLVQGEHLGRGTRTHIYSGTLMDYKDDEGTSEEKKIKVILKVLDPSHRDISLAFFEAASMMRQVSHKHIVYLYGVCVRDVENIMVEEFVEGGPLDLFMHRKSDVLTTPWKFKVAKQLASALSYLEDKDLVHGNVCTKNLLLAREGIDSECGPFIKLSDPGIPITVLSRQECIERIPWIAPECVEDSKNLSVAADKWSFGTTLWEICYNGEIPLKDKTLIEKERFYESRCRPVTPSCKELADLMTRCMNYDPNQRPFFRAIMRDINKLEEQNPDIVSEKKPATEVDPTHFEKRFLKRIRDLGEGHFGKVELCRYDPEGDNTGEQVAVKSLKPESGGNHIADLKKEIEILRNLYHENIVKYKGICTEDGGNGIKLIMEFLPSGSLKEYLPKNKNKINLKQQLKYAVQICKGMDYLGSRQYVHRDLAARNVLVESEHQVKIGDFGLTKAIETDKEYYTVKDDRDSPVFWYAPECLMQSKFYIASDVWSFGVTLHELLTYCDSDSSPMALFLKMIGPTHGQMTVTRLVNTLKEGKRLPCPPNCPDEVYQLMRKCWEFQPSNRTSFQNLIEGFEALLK
Method in brief: as §1

JAK3 = JAK3 (Homo sapiens (Human), UniProt P52333); test: Biochemical JAK3 kinase assay (LanthaScreen); conditions: for JAK3 (pKi)-JAK1 (pKi): selectivity JAK3 over JAK1, difference of pKi
JAK3, sequence (P52333 whole entry): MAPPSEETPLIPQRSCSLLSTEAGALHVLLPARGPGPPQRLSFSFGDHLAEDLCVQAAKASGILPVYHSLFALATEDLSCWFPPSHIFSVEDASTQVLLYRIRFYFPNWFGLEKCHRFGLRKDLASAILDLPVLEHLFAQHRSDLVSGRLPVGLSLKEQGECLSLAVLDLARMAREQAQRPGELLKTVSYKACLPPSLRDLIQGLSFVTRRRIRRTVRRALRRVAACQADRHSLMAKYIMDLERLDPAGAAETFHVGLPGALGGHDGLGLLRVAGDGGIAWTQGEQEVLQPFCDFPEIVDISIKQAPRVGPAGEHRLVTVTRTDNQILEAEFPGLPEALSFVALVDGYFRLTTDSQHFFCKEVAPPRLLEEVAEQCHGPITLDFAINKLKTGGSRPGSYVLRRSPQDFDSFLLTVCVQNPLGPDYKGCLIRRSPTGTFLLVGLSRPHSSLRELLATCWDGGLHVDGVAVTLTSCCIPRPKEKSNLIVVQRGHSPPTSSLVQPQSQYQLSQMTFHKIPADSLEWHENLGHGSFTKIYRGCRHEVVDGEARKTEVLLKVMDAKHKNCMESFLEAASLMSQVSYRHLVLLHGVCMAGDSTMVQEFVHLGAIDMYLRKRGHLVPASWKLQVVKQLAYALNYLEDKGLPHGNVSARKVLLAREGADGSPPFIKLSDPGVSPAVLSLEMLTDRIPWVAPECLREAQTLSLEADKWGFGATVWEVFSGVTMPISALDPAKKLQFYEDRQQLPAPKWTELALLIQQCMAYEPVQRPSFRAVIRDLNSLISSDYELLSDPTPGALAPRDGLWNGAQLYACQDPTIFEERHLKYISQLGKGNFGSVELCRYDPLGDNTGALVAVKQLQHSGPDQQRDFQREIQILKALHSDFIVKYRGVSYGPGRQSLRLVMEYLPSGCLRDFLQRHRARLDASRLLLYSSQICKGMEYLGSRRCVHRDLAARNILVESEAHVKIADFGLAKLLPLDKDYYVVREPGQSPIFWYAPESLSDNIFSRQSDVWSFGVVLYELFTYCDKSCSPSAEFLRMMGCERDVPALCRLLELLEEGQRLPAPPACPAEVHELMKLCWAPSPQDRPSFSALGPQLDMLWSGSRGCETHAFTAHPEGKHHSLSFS
Method in brief: as §1

JAK2 = JAK2 (Homo sapiens (Human), UniProt O60674); test: Biochemical JAK2 kinase assay (LanthaScreen)
JAK2, sequence (O60674 whole entry): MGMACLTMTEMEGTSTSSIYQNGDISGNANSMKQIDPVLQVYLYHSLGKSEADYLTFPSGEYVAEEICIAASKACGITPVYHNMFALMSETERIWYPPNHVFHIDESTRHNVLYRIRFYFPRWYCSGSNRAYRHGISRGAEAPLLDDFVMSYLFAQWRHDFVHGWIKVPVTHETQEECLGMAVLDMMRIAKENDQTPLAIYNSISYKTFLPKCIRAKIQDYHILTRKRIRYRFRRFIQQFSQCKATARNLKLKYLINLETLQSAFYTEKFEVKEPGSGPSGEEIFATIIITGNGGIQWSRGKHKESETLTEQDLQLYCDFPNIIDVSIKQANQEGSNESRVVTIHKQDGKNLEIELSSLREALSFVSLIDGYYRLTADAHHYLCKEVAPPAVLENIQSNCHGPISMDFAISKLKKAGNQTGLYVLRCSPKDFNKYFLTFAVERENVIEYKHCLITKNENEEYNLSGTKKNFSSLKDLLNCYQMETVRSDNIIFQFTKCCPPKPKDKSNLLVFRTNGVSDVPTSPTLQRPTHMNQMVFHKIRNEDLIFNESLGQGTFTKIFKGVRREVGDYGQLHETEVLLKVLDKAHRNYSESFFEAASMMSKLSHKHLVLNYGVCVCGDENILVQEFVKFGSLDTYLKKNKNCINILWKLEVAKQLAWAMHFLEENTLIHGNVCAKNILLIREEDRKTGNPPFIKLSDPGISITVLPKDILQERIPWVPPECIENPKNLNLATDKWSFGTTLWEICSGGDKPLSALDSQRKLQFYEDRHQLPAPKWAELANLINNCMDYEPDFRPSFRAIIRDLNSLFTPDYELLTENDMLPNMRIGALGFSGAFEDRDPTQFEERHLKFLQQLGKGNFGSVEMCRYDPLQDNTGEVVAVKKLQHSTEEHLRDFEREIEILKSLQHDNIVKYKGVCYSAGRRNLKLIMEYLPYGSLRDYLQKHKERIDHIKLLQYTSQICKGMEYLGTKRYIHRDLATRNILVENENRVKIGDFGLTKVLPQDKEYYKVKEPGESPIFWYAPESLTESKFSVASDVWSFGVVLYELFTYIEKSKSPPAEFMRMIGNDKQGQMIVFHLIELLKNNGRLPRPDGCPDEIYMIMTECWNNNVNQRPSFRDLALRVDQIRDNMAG
Method in brief: as §1

Row | SMILES | Tall-1 (pIC50) [1] | Tyk 2 (pKi) (Tyk2) | Caco Kp (Caco-2 cell monolayers) | JAK 1 (pKi) (JAK1) | JAK 3 (pKi) (JAK3) | JAK3 (pKi)-JAK1 (pKi) (JAK3) | JAK 2 (pKi) (JAK2)
1 | C=CC(=O)N1CCN(CCn2c(=O)ccc3cnc(Nc4ccc(N5CCN(C(=O)CCSC)CC5)cc4)nc32)[C@@H](CC)C1 [Example 192] | B (B represents a pC50 value between 6.7 (included) and 7.5 (IC50 between 200 nM and 32 nM)) | E (E represents a pKi value of 7 or below (Ki of 100 nM or above)) | C (C represents a value between 10×10^−6 and 30×10^−6 cm/sec) | E (E represents a pKi value of 7 or below (Ki of 100 nM or above)) | B (B represents pKi value between 9 and 10 (Ki between 1 nM and 0.1 nM)) | A (A represents a value of 3 or above) | E (E represents a pKi value of 7 or below (Ki of 100 nM or above))
2 | C=CC(=O)N1CCN(CCn2c(=O)ccc3cnc(Nc4ccc(N5CCN(C)CC5)cc4)nc32)[C@@H](CO)C1 [Example 193] | B (B represents a pC50 value between 6.7 (included) and 7.5 (IC50 between 200 nM and 32 nM)) | E (E represents a pKi value of 7 or below (Ki of 100 nM or above)) | A (A represents a value below 5×10^−6 cm/sec) | E (E represents a pKi value of 7 or below (Ki of 100 nM or above)) | B (B represents pKi value between 9 and 10 (Ki between 1 nM and 0.1 nM)) | A (A represents a value of 3 or above) | E (E represents a pKi value of 7 or below (Ki of 100 nM or above))
3 | C=CC(=O)N1CCN(CCn2c(=O)ccc3cnc(Nc4cnn(Cc5ccccc5)c4)nc32)[C@@H](CC)C1 [Example 194] | B (B represents a pC50 value between 6.7 (included) and 7.5 (IC50 between 200 nM and 32 nM)) | E (E represents a pKi value of 7 or below (Ki of 100 nM or above)) | C (C represents a value between 10×10^−6 and 30×10^−6 cm/sec) | E (E represents a pKi value of 7 or below (Ki of 100 nM or above)) | B (B represents pKi value between 9 and 10 (Ki between 1 nM and 0.1 nM)) | A (A represents a value of 3 or above) | E (E represents a pKi value of 7 or below (Ki of 100 nM or above))
4 | C=CC(=O)N1CCN(CCn2c(=O)ccc3cnc(Nc4cnn(C5CCN(C)CC5)c4)nc32)[C@@H](CC)C1 [Example 196] | B (B represents a pC50 value between 6.7 (included) and 7.5 (IC50 between 200 nM and 32 nM)) | E (E represents a pKi value of 7 or below (Ki of 100 nM or above)) | A (A represents a value below 5×10^−6 cm/sec) | E (E represents a pKi value of 7 or below (Ki of 100 nM or above)) | B (B represents pKi value between 9 and 10 (Ki between 1 nM and 0.1 nM)) | A (A represents a value of 3 or above) | E (E represents a pKi value of 7 or below (Ki of 100 nM or above))
5 | C=CC(=O)N1CCN(CCn2c(=O)ccc3cnc(Nc4cnn(C5CCOCC5)c4)nc32)[C@@H](CC)C1 [Example 197] | B (B represents a pC50 value between 6.7 (included) and 7.5 (IC50 between 200 nM and 32 nM)) | E (E represents a pKi value of 7 or below (Ki of 100 nM or above)) | A (A represents a value below 5×10^−6 cm/sec) | E (E represents a pKi value of 7 or below (Ki of 100 nM or above)) | B (B represents pKi value between 9 and 10 (Ki between 1 nM and 0.1 nM)) | A (A represents a value of 3 or above) | E (E represents a pKi value of 7 or below (Ki of 100 nM or above))
6 | C=CC(=O)N1CCN(CCn2c(=O)ccc3cnc(Nc4ccc(N5CCN(C(=O)C[S+]([O-])CC)CC5)cc4)nc32)[C@@H](CC)C1 (some centres unmarked) [Example 198] | C (C represents a pIC50 value between 6 and 6.7 (IC50 between 1 μM and 200 nM)) | E (E represents a pKi value of 7 or below (Ki of 100 nM or above)) | A (A represents a value below 5×10^−6 cm/sec) | E (E represents a pKi value of 7 or below (Ki of 100 nM or above)) | B (B represents pKi value between 9 and 10 (Ki between 1 nM and 0.1 nM)) | A (A represents a value of 3 or above) | E (E represents a pKi value of 7 or below (Ki of 100 nM or above))
7 | C=CC(=O)N1CCN(C(C)Cn2c(=O)ccc3cnc(Nc4ccc(N5CCN(C(C)=O)CC5)cc4)nc32)CC1 (centres unmarked) [Example 201] | B (B represents a pC50 value between 6.7 (included) and 7.5 (IC50 between 200 nM and 32 nM)) | E (E represents a pKi value of 7 or below (Ki of 100 nM or above)) | A (A represents a value below 5×10^−6 cm/sec) | E (E represents a pKi value of 7 or below (Ki of 100 nM or above)) | B (B represents pKi value between 9 and 10 (Ki between 1 nM and 0.1 nM)) | A (A represents a value of 3 or above) | E (E represents a pKi value of 7 or below (Ki of 100 nM or above))
8 | C=CC(=O)N1CCN(CCn2c(=O)ccc3cnc(Nc4cnn(CCF)c4)nc32)[C@@H](CC)C1 [Example 202] | B (B represents a pC50 value between 6.7 (included) and 7.5 (IC50 between 200 nM and 32 nM)) | E (E represents a pKi value of 7 or below (Ki of 100 nM or above)) | A (A represents a value below 5×10^−6 cm/sec) | E (E represents a pKi value of 7 or below (Ki of 100 nM or above)) | B (B represents pKi value between 9 and 10 (Ki between 1 nM and 0.1 nM)) | A (A represents a value of 3 or above) | E (E represents a pKi value of 7 or below (Ki of 100 nM or above))
9 | C=CC(=O)N1CCN(CCn2c(=O)ccc3cnc(Nc4cnn(C(C)(C)COC)c4)nc32)[C@@H](CC)C1 [Example 203] | B (B represents a pC50 value between 6.7 (included) and 7.5 (IC50 between 200 nM and 32 nM)) | E (E represents a pKi value of 7 or below (Ki of 100 nM or above)) | C (C represents a value between 10×10^−6 and 30×10^−6 cm/sec) | E (E represents a pKi value of 7 or below (Ki of 100 nM or above)) | B (B represents pKi value between 9 and 10 (Ki between 1 nM and 0.1 nM)) | A (A represents a value of 3 or above) | E (E represents a pKi value of 7 or below (Ki of 100 nM or above))
10 | C=CC(=O)N1CCN(CCn2c(=O)ccc3cnc(Nc4ccc(N5CCN(C(C)C)CC5)cc4)nc32)CC1 [Example 205] | A (A represents a pIC50 value≥7.5 (IC50≤32 nM)) | E (E represents a pKi value of 7 or below (Ki of 100 nM or above)) | B (B represents a value between 5×10^−6 and 10×10^−6 cm/sec) | E (E represents a pKi value of 7 or below (Ki of 100 nM or above)) | B (B represents pKi value between 9 and 10 (Ki between 1 nM and 0.1 nM)) | A (A represents a value of 3 or above) | E (E represents a pKi value of 7 or below (Ki of 100 nM or above))
11 | C=CC(=O)N1CCN(CCn2c(=O)ccc3cnc(Nc4ccc(N5CCN(C(C)CC)CC5)cc4)nc32)CC1 (centres unmarked) [Example 206] | A (A represents a pIC50 value≥7.5 (IC50≤32 nM)) | E (E represents a pKi value of 7 or below (Ki of 100 nM or above)) | C (C represents a value between 10×10^−6 and 30×10^−6 cm/sec) | E (E represents a pKi value of 7 or below (Ki of 100 nM or above)) | A (A represents a pKi value≥10 (Ki≤0.1 nM)) | A (A represents a value of 3 or above) | E (E represents a pKi value of 7 or below (Ki of 100 nM or above))
